Data taken from patent publication US20200157144A1, “ANTIMICROBIAL PEPTIDOMIMETICS” (priority 2017, published 2020).
Values after ≈ are worked out from the molar mass of the structure shown. Values joined by “and” are separate entries in the source; they are usually repeats but may differ in a detail not shown here. Equal values may be shown once. Read-outs that look alike come from different tables or passages of the source. Square brackets hold non-standard residues; d marks the D form. Peptide text beside a SMILES is read from it. Bip(4'-Cl) = N[C@@H](Cc1ccc(-c2ccc(Cl)cc2)cc1)C(=O)O

What was measured:
Assay in all cases: microbe, parasite or virus in culture
[1] = system: Mupirocin-susceptible MRSA ATCC-BAA-1707 (USA400); type: cell-based, Staphylococcus aureus
Experimental: (§1) The MICs of test compounds were determined using the microdilution method from the Clinical and Laboratory Standards Institute (CLSI) guidelines (Clinical and Laboratory Standards Institute. Methods for dilution antimicrobial susceptibility tests for bacteria that grow aerobically; approved standard—ninth edition. Document M07-A9. Vol. 32 No. 2. Wayne, Pa.: CLSI; 2012). Briefly, bacteria were grown fresh from frozen stock in Mueller Hinton 2 (MH2) agar at 37° C. After an overnight incubation, 5 bacteria colonies were selected to grow in cation-adjusted MH2 broth in a shaking incubator (140 RPM) at 37° C. Cells were grown to an optical density (OD600) of 0.15-0.16 determined using a spectrophotometer (Molecular Devices Spectra Max Plus), which corresponds to ˜1×10^8 CFU/mL. Test compounds were constituted into 4 mM DMSO stock solutions and then subjected to 2-fold serial dilution in a 96-well plate with concentrations ranging from 100 to 0.195 μM in duplicates. […] of microbial culture containing ˜1×10^6 CFU/mL of microbes in the respective broths was introduced into each well containing 50 μL of compound solution. After an overnight incubation at 35° C., (220 RPM), OD600 measurements were conducted using the microplate spectrophotometer. The MIC was defined as the lowest antibiotic or compound concentration (μM) required to inhibit bacteria growth.
(§2) The 11th well was used as the growth control well (medium with bacterial inoculums, no antibacterial) while the 12th well was the sterility control well (medium only).

[2] = system: Mupirocin-susceptible MRSA ATCC-33592 (ST239); type: cell-based, Staphylococcus aureus
Experimental: as §1, §2

[3] = system: Mupirocin-resistant MRSA ATCC-BAA-1750 (USA200); type: cell-based, Staphylococcus aureus
Experimental: as §1, §2

[4] = system: Mupirocin-susceptible MRSA ATCC-700699 (VISA); type: cell-based, Staphylococcus aureus
Experimental: as §1, §2

[5] = system: Mupirocin-resistant MRSA ATCC-BAA-1556; type: cell-based, Staphylococcus aureus
Experimental: as §1, §2

[6] = system: Mupirocin-susceptible MRSA ATCC-BAA-1756 (USA300); type: cell-based, Staphylococcus aureus
Experimental: as §1, §2

[7] = system: Mupirocin-susceptible MRSA ATCC-BAA-1754 (ST45); type: cell-based, Staphylococcus aureus
Experimental: as §1, §2

[8] = system: Mupirocin-resistant MRSA ATCC-BAA-1708; type: cell-based, Staphylococcus aureus
Experimental: as §1, §2

[9] = system: Mupirocin-susceptible MRSA ATCC-BAA-2762 (EMRSA15, ST22); type: cell-based, Staphylococcus aureus
Experimental: as §1, §2

[10] = system: Mupirocin-susceptible MRSA ATCC-BAA-1681 (USA100); type: cell-based, Staphylococcus aureus
Experimental: as §1, §2

S. aureus NARSA VRS3a = type: cell-based; conditions: Staphylococcus aureus; S. aureus NARSA VRS3a; CAMHB II; read-out: MIC
Experimental: (§3) The antibacterial potency of Compound 34 was measured using the in vitro broth microdilution assay under assay conditions described by the Clinical and Laboratory Standards Institute. […] The test substance was dissolved in 100% DMSO (unless stated below), suspended completely by sonication or vortexing, diluted by 2-fold serial titrations in the same vehicle, for a total of 11 test concentrations. A 4 μL aliquot of each dilution was added to 196 μL of broth medium seeded with the organism suspension in wells of a 96 well plate (bacterial count: 2-8×10^5 colony forming units/mL final). The final volume was 200 μL in each well and the final DMSO concentration was 2%. The incubation time is 1 day at 36° C. All strains tested underwent aerobic respiration. Following incubation, the test plates were visually examined and wells were scored for growth or complete growth inhibition to define the minimum inhibitory concentration. Each test substance was evaluated in duplicate and the results below are the duplicate test values. Vehicle-control and an active reference agent were used as blank and positive controls, respectively.

S. aureus ECL 2963646 = type: cell-based; conditions: Staphylococcus aureus, ECL2963646; S. aureus ECL 2963646; CAMHB II; read-out: MIC
Experimental: as §3

S. aureus NARSA VRS1 = type: cell-based; conditions: Staphylococcus aureus; S. aureus NARSA VRS1; CAMHB II; read-out: MIC
Experimental: as §3

S. aureus NARSA VRS2 = type: cell-based; conditions: Staphylococcus aureus; S. aureus NARSA VRS2; CAMHB II; read-out: MIC
Experimental: as §3

S. aureus NARSA VRS11b = type: cell-based; conditions: Staphylococcus aureus; S. aureus NARSA VRS11b; CAMHB II; read-out: MIC
Experimental: as §3

[11] = system: S. aureus (ATCC BAA-1556); conditions: Staphylococcus aureus, ATCCBAA1556, 24 h, read-out: Mean MIC
Experimental: S. aureus (BAA-1556) was from ATCC. Mupirocin (Cat # M2955) was purchased from TCI chemicals (India) Pvt. […] Ltd, India, Cation adjusted Mueller Hinton broth (CAMHB) and Mueller Hinton Agar (MHA) (Cat # M1657) were from HiMedia Laboratories Pvt. Ltd, India.
The MIC assay was done based on CLSI guidelines in a microtitre plate format (1, 2). Preparation and dilution of Test Item (TI) stock solutions: A 1280 μg/ml stock of Compound 34 was prepared by dissolving 1.28 mg in 1.0 ml of sterile water to obtain the Master Stock (MS) solution. The MS solution was diluted 2-fold to obtain a series of Working Stock (WS) solutions (Table 7). The final concentration of solvent in the assay was 2.5% and the assay volume was […].
Preparing the inoculum: One day before initiation of experiment, an isolated colony of S. aureus (ATCC BAA-1556) was inoculated into sterile CAMHB and incubated at 37° C. to exponential phase. After incubation, the turbidity was adjusted to that of a 0.5 McFarland Standard (approximately equivalent to 1.0×10^8 CFU/ml) and diluted to ˜1.0×10^6 CFU/ml.
MIC Assay: The MIC assay was performed in a 96 well microtitre plate in a total assay volume of 100 μl (Table 7). Each well containing different concentrations of test compound (concentration range between 0.015625 and 16.0 μg/ml) was inoculated with 50 μl of bacterial suspension (prepared from the inoculum grown overnight and adjusted approximately to 5.0×10^5 CFU/ml) along with culture control (CC, culture in broth), broth control (BC, broth only), and vehicle control (VC, 2.5% solvent in broth plus culture). The plate was incubated at 37° C. for 24 hr and turbidity was measured spectrophotometrically (Absorbance microplate reader, BioTek® India, ELx800™) at 600 nm and visually. The experiment was done in duplicates. The inoculum was also plated for enumeration of bacteria. The MIC was defined as the lowest concentration of test compound that prevented bacterial growth (lack of turbidity by OD at 600 nm and visual inspection relative to no growth control).

[12] = Mupirocin-resistant MRSA ATCC-BAA-1556, cation-adjusted MH2 broth, overnight 35° C., OD600, read-out: MIC
[13] = Staphylococcus aureus, Mupirocin-susceptible MRSA ATCC-700699 (VISA), read-out: MIC

Row | SMILES | MIC ([1]; ATCC-BAA-1707, read-out: MIC) | MIC ([2]; ATCC-33592, read-out: MIC) | MIC ([3]; ATCC-BAA-1750, read-out: MIC) | MIC [5, 12] | MIC ([6]; ATCC-BAA-1756, read-out: MIC) | MIC ([7]; ATCC-BAA-1754, read-out: MIC) | MIC ([8]; ATCC-BAA-1708, read-out: MIC) | MIC ([9]; ATCC-BAA-2762, read-out: MIC) | MIC ([10]; ATCC-BAA-1681, read-out: MIC) | MIC [11] | MIC ([1]; Staphylococcus aureus) | MIC ([2]; Staphylococcus aureus) | MIC ([3]; Staphylococcus aureus) | MIC [4, 13] | MIC ([5]; Staphylococcus aureus) | MIC ([6]; Staphylococcus aureus) | MIC ([7]; Staphylococcus aureus) | MIC ([8]; Staphylococcus aureus) | MIC ([9]; Staphylococcus aureus) | MIC ([10]; Staphylococcus aureus) | also measured
1 | N=C(N)NCCC[C@H](NC(=O)[C@H](Cc1ccc(-c2ccc(Cl)cc2)cc1)NC(=O)[C@H](CCCNC(=N)N)NC(=O)[C@@H](N)Cc1ccc(-c2ccc(Cl)cc2)cc1)C(N)=O [Compound 33] (H-[Bip(4'-Cl)]R[Bip(4'-Cl)]R-NH2) | 3.125 µM (≈ 2.64 µg/mL) | 3.125 µM (≈ 2.64 µg/mL) | 1.56 µM (≈ 1.32 µg/mL) | 3.125 µM (≈ 2.64 µg/mL) | 3.125 µM (≈ 2.64 µg/mL) | 3.125 µM (≈ 2.64 µg/mL) | 1.56 µM (≈ 1.32 µg/mL) | 3.125 µM (≈ 2.64 µg/mL) | 3.125 µM (≈ 2.64 µg/mL) | – | – | – | – | – | – | – | – | – | – | – | MIC ([4]; ATCC-700699, read-out: MIC): 3.125 µM (≈ 2.64 µg/mL); improvement of bioactivity (lower MIC values) as compared to Compound 2 ([5]; against Mupirocin-resistant MRSA strains): about 4 fold
2 | CC(=O)NC[C@H]1CN(c2ccc(N3CCOCC3)c(F)c2)C(=O)O1 [Linezolid] | – | – | – | – | – | – | – | – | – | 1 µg/mL and 2.96 µM | 6.25 µM (≈ 2.11 µg/mL) | 6.25 µM (≈ 2.11 µg/mL) | 6.25 µM (≈ 2.11 µg/mL) | 3.12 µM (≈ 1.05 µg/mL) | 6.25 µM (≈ 2.11 µg/mL) | 6.25 µM (≈ 2.11 µg/mL) | 6.25 µM (≈ 2.11 µg/mL) | 6.25 µM (≈ 2.11 µg/mL) | 6.25 µM (≈ 2.11 µg/mL) | 6.25 µM (≈ 2.11 µg/mL) | MIC (S. aureus NARSA VRS3a): 4 µg/mL and 11.9 µM; MIC (S. aureus ECL 2963646): 2 µg/mL and 5.93 µM; MIC (S. aureus NARSA VRS1): 2 µg/mL and 5.93 µM; MIC (S. aureus NARSA VRS2): 2 µg/mL and 5.93 µM; MIC (S. aureus NARSA VRS11b): 2 µg/mL and 5.93 µM
3 | C/C(=C\C(=O)OCCCCCCCCC(=O)O)C[C@@H]1OC[C@H](C[C@@H]2O[C@H]2[C@@H](C)[C@H](C)O)[C@@H](O)[C@H]1O [Mupirocin] | – | – | – | – | – | – | – | – | – | > 16 µg/mL and > 32 µM | – | – | – | ≤ 0.2 µM | – | – | – | – | – | – | MIC ([1]; Staphylococcus aureus, Mupirocin-susceptible MRSA ATCC-BAA-1707 (USA400), read-out: MIC): ≤ 0.2 µM; MIC ([2]; Staphylococcus aureus, Mupirocin-susceptible MRSA ATCC-33592 (ST239), read-out: MIC): ≤ 0.2 µM; MIC ([3]; Staphylococcus aureus, Mupirocin-resistant MRSA ATCC-BAA-1750 (USA200), read-out: MIC): 25 µM (≈ 12.5 µg/mL); MIC ([5]; Staphylococcus aureus, Mupirocin-resistant MRSA ATCC-BAA-1556, cation-adjusted MH2 broth, overnight 35° C., OD600, read-out: MIC): > 100 µM; MIC ([6]; Staphylococcus aureus, Mupirocin-susceptible MRSA ATCC-BAA-1756 (USA300), read-out: MIC): ≤ 0.2 µM; MIC ([7]; Staphylococcus aureus, Mupirocin-susceptible MRSA ATCC-BAA-1754 (ST45), read-out: MIC): ≤ 0.2 µM; MIC ([8]; Staphylococcus aureus, Mupirocin-resistant MRSA ATCC-BAA-1708, read-out: MIC): > 100 µM; MIC ([9]; Staphylococcus aureus, Mupirocin-susceptible MRSA ATCC-BAA-2762 (EMRSA15, ST22), read-out: MIC): ≤ 0.2 µM; MIC ([10]; Staphylococcus aureus, Mupirocin-susceptible MRSA ATCC-BAA-1681 (USA100), read-out: MIC): ≤ 0.2 µM
4 | C=C[C@]1(C)C[C@@H](OC(=O)CS[C@@H]2C[C@H]3CC[C@@H](C2)N3C)[C@]2(C)[C@H](C)CC[C@]3(CCC(=O)[C@H]32)[C@@H](C)[C@@H]1O [Retapamulin] | – | – | – | – | – | – | – | – | – | – | ≤ 0.2 µM | ≤ 0.2 µM | ≤ 0.2 µM | – | ≤ 0.2 µM | ≤ 0.2 µM | ≤ 0.2 µM | ≤ 0.2 µM | ≤ 0.2 µM | ≤ 0.2 µM | MIC ([4]; Staphylococcus aureus): ≤ 0.2 µM
5 | N=C(N)NCCCCNC(=O)[C@@H](Cc1ccc(-c2ccccc2)cc1)NC(=O)[C@@H](CCCNC(=N)N)NC(=O)[C@H](N)Cc1ccc(-c2ccccc2)cc1 [Compound 2] | 6.25 µM (≈ 4.58 µg/mL) | 6.25 µM (≈ 4.58 µg/mL) | 6.25 µM (≈ 4.58 µg/mL) | 12.5 µM (≈ 9.16 µg/mL) | 6.25 µM (≈ 4.58 µg/mL) | 6.25 µM (≈ 4.58 µg/mL) | 6.25 µM (≈ 4.58 µg/mL) | 6.25 µM (≈ 4.58 µg/mL) | 6.25 µM (≈ 4.58 µg/mL) | – | – | – | – | – | – | – | – | – | – | – | MIC ([4]; Mupirocin-susceptible MRSA ATCC-700699 (VISA), read-out: MIC): 6.25 µM (≈ 4.58 µg/mL)
